In ChEMBL document CHEMBL3784920, “Synthesis and Pharmacological Evaluation of Novel Adenine-Hydrogen Sulfide Slow Release Hybrids Designed as Multitarget Cardioprotective Agents” (J Med Chem, 2016):

Key:
[1] = system: Oryctolagus cuniculus; experiment: Toxicity in New Zealand white rabbit assessed as baseline mean blood pressure at 1.79 umol/kg, administered as single bolus dose (reference value: 74 +/- 5 mmHg); assay type: organism-based; settings: in vivo
[2] = system: Oryctolagus cuniculus; experiment: Toxicity in New Zealand white rabbit myocardial ischemia/reperfusion injury model assessed as mean blood pressure at 1.79 umol/kg, administered as single bolus dose at 180 mins of reperfusion (reference value: 60 +/- 4 mmHg); assay type: organism-based; settings: in vivo, iv, 3 h
[3] = system: Oryctolagus cuniculus; experiment: Toxicity in New Zealand white rabbit assessed as baseline mean blood pressure at 1.79 umol/kg, administered as single bolus dose in presence of NaHS (reference value: 74 +/- 5 mmHg); assay type: organism-based; settings: in vivo
[4] = system: Oryctolagus cuniculus; experiment: Toxicity in New Zealand white rabbit myocardial ischemia/reperfusion injury model assessed as mean blood pressure at 1.79 umol/kg, administered as single bolus dose at 180 mins of reperfusion in presence of NaHS (reference value: 60 +/- 4 mmHg); assay type: organism-based; settings: in vivo, iv, 3 h
[5] = system: Oryctolagus cuniculus; experiment: Toxicity in New Zealand white rabbit myocardial ischemia/reperfusion injury model assessed as heart rate at 1.79 umol/kg, administered as single bolus dose at 180 mins of reperfusion (reference value: 254 +/- 11 bpm); assay type: organism-based; settings: in vivo, 3 h
[6] = Induction of H2S release in potassium phosphate buffer at 100 uM at pH 7.4 by Amperometric method; assay type: physicochemical; settings: pH 7.4, 100 µM
[7] = system: Oryctolagus cuniculus; experiment: Cardioprotective activity in New Zealand white rabbit myocardial ischemia/reperfusion injury model assessed as reduction in infarct size at 1.79 umol/kg, administered as single bolus dose at 20th min of sustained ischemia by TTC staining (reference value: 47.9 +/- 0.7 %); assay type: functional, Myocardium; design: scale not given: the % may be the effect or the level left
[8] = system: Oryctolagus cuniculus; experiment: Toxicity in New Zealand white rabbit assessed as heart weight at 1.79 umol/kg, administered as single bolus dose in presence of non selective adenosine receptor inhibitor SPT (reference value: 7.2 +/- 0.3 g); assay type: organism-based; settings: in vivo
[9] = system: Oryctolagus cuniculus; experiment: Toxicity in New Zealand white rabbit assessed as baseline heart rate at 1.79 umol/kg, administered as single bolus dose in presence of non selective adenosine receptor inhibitor SPT (reference value: 269 +/- 10 bpm); assay type: organism-based; settings: in vivo
[10] = system: Oryctolagus cuniculus; experiment: Toxicity in New Zealand white rabbit myocardial ischemia/reperfusion injury model assessed as mean blood pressure at 1.79 umol/kg, administered as single bolus dose at 20 mins of sustained ischemia in presence of NaHS (reference value: 64 +/- 5 mmHg); assay type: organism-based; settings: in vivo, iv
[11] = system: Oryctolagus cuniculus; experiment: Cardioprotective activity in New Zealand white rabbit myocardial ischemia/reperfusion injury model assessed as reduction in infarct size at 1.79 umol/kg, administered as single bolus dose at 20th min of sustained ischemia by TTC staining in presence of NAHS (reference value: 47.9 +/- 0.7 %); assay type: functional, Myocardium; design: scale not given: the % may be the effect or the level left
[12] = system: Oryctolagus cuniculus; experiment: Toxicity in New Zealand white rabbit myocardial ischemia/reperfusion injury model assessed as heart rate at 1.79 umol/kg, administered as single bolus dose at 180 mins of reperfusion in presence of non selective adenosine receptor inhibitor SPT (reference value: 254 +/- 11 bpm); assay type: organism-based; settings: in vivo, 3 h
[13] = system: Oryctolagus cuniculus; experiment: Toxicity in New Zealand white rabbit myocardial ischemia/reperfusion injury model assessed as mean blood pressure at 1.79 umol/kg, administered as single bolus dose at 20 mins of sustained ischemia in presence of non selective adenosine receptor inhibitor SPT (reference value: 64 +/- 5 mmHg); assay type: organism-based; settings: in vivo, iv
[14] = system: Oryctolagus cuniculus; experiment: Toxicity in New Zealand white rabbit assessed as baseline mean blood pressure at 1.79 umol/kg, administered as single bolus dose in presence of SPT (reference value: 74 +/- 5 mmHg); assay type: organism-based; settings: in vivo
[15] = system: Oryctolagus cuniculus; experiment: Toxicity in New Zealand white rabbit myocardial ischemia/reperfusion injury model assessed as mean blood pressure at 1.79 umol/kg, administered as single bolus dose at 180 mins of reperfusion in presence of SPT (reference value: 60 +/- 4 mmHg); assay type: organism-based; settings: in vivo, 3 h
[16] = system: Oryctolagus cuniculus; experiment: Toxicity in New Zealand white rabbit myocardial ischemia/reperfusion injury model assessed as heart rate at 1.79 umol/kg, administered as single bolus dose at 20 mins of sustained ischemia in presence of non selective adenosine receptor inhibitor SPT (reference value: 276 +/- 9 bpm); assay type: organism-based; settings: in vivo
[17] = system: Oryctolagus cuniculus; experiment: Toxicity in New Zealand white rabbit myocardial ischemia/reperfusion injury model assessed as mean blood pressure at 1.79 umol/kg, administered as single bolus dose at 20 mins of sustained ischemia (reference value: 64 +/- 5 mmHg); assay type: organism-based; settings: in vivo
[18] = system: Oryctolagus cuniculus; experiment: Toxicity in New Zealand white rabbit myocardial ischemia/reperfusion injury model assessed as heart rate at 1.79 umol/kg, administered as single bolus dose at 20 mins of sustained ischemia (reference value: 276 +/- 9 bpm); assay type: organism-based; settings: in vivo
[19] = system: Oryctolagus cuniculus; experiment: Toxicity in New Zealand white rabbit myocardial ischemia/reperfusion injury model assessed as heart rate at 1.79 umol/kg, administered as single bolus dose at 20 mins of sustained ischemia in presence of NaHS (reference value: 276 +/- 9 bpm); assay type: organism-based; settings: in vivo
[20] = system: Oryctolagus cuniculus; experiment: Toxicity in New Zealand white rabbit assessed as heart weight at 1.79 umol/kg, administered as single bolus dose (reference value: 7.2 +/- 0.3 g); assay type: organism-based; settings: in vivo
[21] = system: Oryctolagus cuniculus; experiment: Toxicity in New Zealand white rabbit assessed as baseline heart rate at 1.79 umol/kg, administered as single bolus dose (reference value: 269 +/- 10 bpm); assay type: organism-based; settings: in vivo
[22] = system: Oryctolagus cuniculus; experiment: Toxicity in New Zealand white rabbit myocardial ischemia/reperfusion injury model assessed as heart rate at 1.79 umol/kg, administered as single bolus dose at 180 mins of reperfusion in presence of NaHS (reference value: 254 +/- 11 bpm); assay type: organism-based; settings: in vivo, iv, 3 h
[23] = system: Oryctolagus cuniculus; experiment: Toxicity in New Zealand white rabbit assessed as heart weight at 1.79 umol/kg, administered as single bolus dose in presence of NaHS (reference value: 7.2 +/- 0.3 g); assay type: organism-based; settings: in vivo
[24] = system: Oryctolagus cuniculus; experiment: Toxicity in New Zealand white rabbit assessed as baseline heart rate at 1.79 umol/kg, administered as single bolus dose in presence of NaHS (reference value: 269 +/- 10 bpm); assay type: organism-based; settings: in vivo
[25] = system: Oryctolagus cuniculus; experiment: Cardioprotective activity in New Zealand white rabbit myocardial ischemia/reperfusion injury model assessed as reduction in infarct size at 1.79 umol/kg, administered as single bolus dose at 20 mins before sustained ischemia by TTC staining in presence of non selective adenosine receptor inhibitor SPT (reference value: 47.9 +/- 0.7 %); assay type: functional, Myocardium; design: scale not given: the % may be the effect or the level left

## NC(=O)c1ccc(OCCCCn2cnc3c(N)ncnc32)cc1
[1]
  Activity: 77 mmHg
[2]
  Activity: 71 mmHg
[3]
  Activity: 79 mmHg
[4]
  Activity: 67 mmHg
[5]
  Activity: 262 bpm
[6]
  Activity: Not Active
[7]
  Activity: 26.6%
[8]
  Activity: 7.1 g
[9]
  Activity: 278 bpm
[10]
  Activity: 65 mmHg
[11]
  Activity: 22.3%
[12]
  Activity: 268 bpm
[13]
  Activity: 76 mmHg
[14]
  Activity: 82 mmHg
[15]
  Activity: 72 mmHg
[16]
  Activity: 259 bpm
[17]
  Activity: 75 mmHg
[18]
  Activity: 258 bpm
[19]
  Activity: 272 bpm
[20]
  Activity: 7.3 g
[21]
  Activity: 260 bpm
[22]
  Activity: 252 bpm
[23]
  Activity: 7.4 g
[24]
  Activity: 268 bpm
[25]
  Activity: 41.8%
